The record followed here is US5442060A, “Carboxamide derivatives” (Mitsubishi Kasei Corporation, priority 1992, dated 1995).

Counter-ions that a name gives are not always drawn.

The experiment concerns the target T1, ACAT (Homo sapiens, UniProt P35610).
T1 construct: endogenous in cells; host or cells: HepG2
T1 sequence (P35610 1-550): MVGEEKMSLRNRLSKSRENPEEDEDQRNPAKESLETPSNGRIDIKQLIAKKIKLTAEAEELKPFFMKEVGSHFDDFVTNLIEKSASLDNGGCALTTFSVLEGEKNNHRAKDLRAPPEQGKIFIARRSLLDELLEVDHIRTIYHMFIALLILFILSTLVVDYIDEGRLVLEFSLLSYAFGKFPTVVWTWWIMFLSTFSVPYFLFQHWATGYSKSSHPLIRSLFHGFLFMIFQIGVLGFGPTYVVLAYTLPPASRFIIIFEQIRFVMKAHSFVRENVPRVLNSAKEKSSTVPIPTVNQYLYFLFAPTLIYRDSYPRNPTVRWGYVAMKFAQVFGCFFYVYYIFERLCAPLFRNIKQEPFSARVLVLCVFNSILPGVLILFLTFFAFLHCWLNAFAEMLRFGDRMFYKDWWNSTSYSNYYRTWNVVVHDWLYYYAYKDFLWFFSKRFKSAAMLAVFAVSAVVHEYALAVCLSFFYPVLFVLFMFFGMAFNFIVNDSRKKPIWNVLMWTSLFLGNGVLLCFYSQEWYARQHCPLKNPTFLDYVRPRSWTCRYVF
Description: ACAT inhibition: radiolabelled cholesterol oleate production from labelled oleic acid in HepG2 cells. To be noted: concentration required to inhibit 50% of ACAT (cholesterol oleate production vs control). Format: cell-based. The method, then: ACAT inhibition of the compounds of the present invention were assayed by the following method. HepG2 cell coming from human hepatic cancer cell was used for assaying ACAT activity. Thus, the assay was effected by adding radioactivity labelled oleic acid-bovine serum albumin complex into an incubation solution of HepG2 cell and measuring the amount of radioactivity labelled cholesterol oleate produced from the radioactivity labelled oeleic acid within the cell. Therefore, the activity of the compound of this invention to inhibit ACAT was obtained by calculating how much percent lowered the productivity of cholesterol oleate in control group containing no test compound by adding the test compound in each concentration (μM) and then expressing IC50 value, namely concentration of a test compound required to inhibit 50% expression of enzyme.
The IC50 is the concentration at which inhibition is half-maximal. The low end stands for inhibition by little substance, the high end for a need for much substance. `CCCCCC(CC(=O)Nc1c(C(C)C)cccc1C(C)C)c1cccc2c1OCO2` (centres unmarked) [Example 1, N-(2,6-diisopropylphenyl)-3-(2,3-methylenedioxyphenyl)octanamide] came in with an IC50 of 0.01 µM.

Compound `CCCCC[C@@H](CNC(=O)Nc1c(OCC)ccc2c1CCCC2)c1cccc2c1OCO2` [Example 22, (R)-1-[2-(2,3-methylenedioxyphenyl)heptyl]-3-(2-ethoxy-5,6,7,8-tetrahydronaphthalene-1-yl) urea] came in with an IC50 of 0.139 µM.

`CCCCCC(CCC(=O)Nc1c(C(C)C)cccc1C(C)C)c1cccc2c1OCO2` (centres unmarked) [Example 8, N-(2,6-Diisopropylphenyl)-4-(2,3-methylenedioxyphenyl)nonanamide] had an IC50 of 0.01 µM.

The compound `CCCCCC(CC(=O)Nc1c(C(C)C)cccc1C(C)C)c1cc(N(C)C)cc(OC)c1OC` (centres unmarked) [Example 17, N-(2,6-diisopropylphenyl)-3-(2,3-dimethoxy-5-dimethylaminophenyl) octanamide] yielded an IC50 of 0.0009 µM.

In the case of `CCCCC[C@@H](CNC(=O)Nc1c(N(C)C)ncnc1N(C)C)c1cccc2c1OCO2` [Example 25, (R)-1-[2-(2,3-methylenedioxyphenyl)heptyl]-3-[4,6-bis (dimethylamino)pyrimidine-5-yl]urea], inhibition was half-maximal at 0.057 µM (IC50).

In the case of `CCCCC[C@@H](CNC(=O)Nc1c(OCC)ncnc1N(C)C)c1cccc2c1OCO2` [Example 30, (R)-1-[2-(2,3-methylenedioxyphenyl)heptyl]-3-(4-dimethylamino-6-ethoxypyrimidine-5-yl) urea], 0.109 µM corresponded to half-maximal inhibition (IC50).

Turning to `CCCCCC(CCC(=O)Nc1c(C(C)C)cccc1C(C)C)c1cccc(OC)c1OC` (centres unmarked) [Example 9, N-(2,6-Diisopropylphenyl)-4-(2,3-dimethoxyphenyl) nonanamide], inhibition was half-maximal at 0.05 µM (IC50).

As to `CCCCCC(CC(=O)Nc1c(C(C)C)cccc1C(C)C)c1cccc(OC)c1OC` (centres unmarked) [Example 2, N-(2,6-Diisopropylphenyl)-3-(2,3-dimethoxyphenyl)octanamide], the IC50 was 0.003 µM.

On to `CCCCC[C@@H](CNC(=O)Nc1c(OC(C)C)ccc2c1CCCC2)c1cccc2c1OCO2` [Example 20, (R)-1-[2-(2,3-methylenedioxyphenyl)heptyl]-3-(2-isopropoxy-5,6,7,8-tetrahydronaphthalene-1-yl) urea], for which 0.037 µM corresponded to half-maximal inhibition (IC50).

In the case of `CCCCC[C@@H](CNC(=O)Nc1c(OC(C)C)c(C)nn1C(C)(C)C)c1cccc2c1OCO2` [Example 34, (R)-1-[2-(2,3-methylenedioxyphenyl)heptyl]-3-[1-(1,1-dimethylethyl)-3-methyl-4-(1-methylethoxy)pyrazole-5-yl]urea], the IC50 was 0.106 µM.

The compound `CCCCC[C@@H](CNC(=O)Nc1c(N2CCCC2)ncnc1N1CCCC1)c1cccc2c1OCO2` [Example 26, (R)-1-[2-(2,3-methylenedioxyphenyl)heptyl]-3-(4,6-dipyrrolidinopyrimidine-5-yl) urea] registered an IC50 of 0.175 µM.

`CCCCC(CC(=O)Nc1c(C(C)C)cccc1C(C)C)c1cccc(OC)c1OC` (centres unmarked) [Example 3, N-(2,6-Diisopropylphenyl)-3-(2,3-dimethoxyphenyl) heptanamide] returned an IC50 of 0.018 µM.

With `CCCCCCC(CC(=O)Nc1c(C(C)C)cccc1C(C)C)c1cccc(OC)c1OC` (centres unmarked) [Example 4, N-(2,6-Diisopropylphenyl)-3-(2,3-dimethoxyphenyl) nonanamide], the IC50 is 0.0065 µM.

Turning to `CCCCC[C@@H](CNC(=O)Nc1c(OC(C)C)c(C)nn1-c1ccccc1)c1cccc2c1OCO2` [Example 31, (R)-1-[2-(2,3-methylenedioxyphenyl)heptyl]-3-[3-methyl-4-(1-methylethoxy)-1-phenylpyrazole-5-yl]urea], the midpoint of inhibition, the IC50, lay at 0.028 µM.

Compound `CCCCC[C@@H](CNC(=O)Nc1cccc2c1OC(C)(C)C2)c1cccc2c1OCO2` [Example 24, (R)-1-[2-(2,3-methylenedioxyphenyl)heptyl]-3-(2,3-dihydro-2,2-dimethylbenzofuran-7-yl) urea] had a 50% inhibitory concentration (IC50) of 0.23 µM.

`CCCCC[C@@H](CNC(=O)Nc1c(OCC)ccc2c1CCC2)c1cccc2c1OCO2` [Example 23, (R)-1-[2-(2,3-methylenedioxyphenyl)heptyl]-3-(5-ethoxyindane-4-yl) urea] gave an IC50 of 0.195 µM.

Turning to `CCCCCC(CC(=O)Nc1c(C(C)C)cccc1C(C)C)c1cc(C(C)=O)cc(OC)c1OC` (centres unmarked) [Example 10, N-(2,6-Diisopropylphenyl)-3-(5-acetyl-2,3-dimethoxyphenyl) octanamide], the IC50 stood at 0.0076 µM.

Compound `CCCCC[C@@H](CNC(=O)Nc1c(OC)ccc2c1CCCC2)c1cccc2c1OCO2` [Example 21, (R)-1-[2-(2,3-methylenedioxyphenyl)heptyl]-3-(2-methoxy-5,6,7,8-tetrahydronaphthalene-1-yl) urea] came in with a half-maximal inhibitory concentration (IC50) of 0.154 µM.

Consider `CCCCC[C@@H](CNC(=O)Nc1c(OC(C)C)ncnc1OC(C)C)c1cccc2c1OCO2` [Example 29, (R)-1-[2-(2,3-methylenedioxyphenyl)heptyl]-3-[4,6-di (1-methylethoxy)pyrimidine-5-yl]urea], for which the IC50 worked out at 0.314 µM.

Turning to `CCCCC[C@H](CC(=O)Nc1c(C(C)C)ccc(N(C)C)c1C(C)C)c1cccc2c1OCO2` [Example 18, (R)-N-(2,6-diisopropyl-3-dimethylaminophenyl)-3-(2,3-methylenedioxyphenyl) octanamide hydrochloride], the IC50 was determined as 0.101 µM.
